Results: ChEMBL document CHEMBL1201862, “PubChem BioAssay data set” (2004)
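In this assay, cells in 96-well plates receive the compound at five concentrations for 48 hours. Endpoints are linearly interpolated between the surrounding concentrations. GI50 marks 50% less growth.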 Activity calls are given as the source filed them. Rule as the data show it: active = GI50 up to about 1.1 µM and inactive = higher.

Experiments:
Test in all cases: NCI anticancer screen, dose series, 48 h
[1] = tested on: A498
[2] = tested on: RPMI-8226
[3] = tested on: K562
[4] = tested on: MDA-MB-231
[5] = tested on: TK-10
[6] = tested on: HCT-15
[7] = tested on: NCI/ADR-RES
[8] = tested on: SF-295
[9] = tested on: BT-549
[10] = tested on: SN12C
[11] = tested on: COLO 205
[12] = tested on: HT-29
[13] = tested on: NCI-H23
[14] = tested on: HCT-116
[15] = tested on: DU-145
[16] = tested on: HOP-92
[17] = tested on: OVCAR-4
[18] = tested on: SK-OV-3
[19] = tested on: CAKI-1
[20] = tested on: SK-MEL-28
[21] = tested on: OVCAR-3
[22] = tested on: SNB-75
[23] = tested on: Malme-3M
[24] = tested on: UO-31
[25] = tested on: HOP-62
[26] = tested on: OVCAR-8
[27] = tested on: LOX IMVI
[28] = tested on: SW-620
[29] = tested on: OVCAR-5
[30] = tested on: SNB-19
[31] = tested on: RXF 393
[32] = tested on: MOLT-4
[33] = tested on: UACC-257
[34] = tested on: 786-0
[35] = tested on: NCI-H522
[36] = tested on: IGROV-1
[37] = tested on: SF-268
[38] = tested on: M14
[39] = tested on: T47D
[40] = tested on: SF-539
[41] = tested on: MDA-MB-435
[42] = tested on: ACHN
[43] = tested on: U-251
[44] = tested on: EKVX
[45] = tested on: SK-MEL-5
[46] = tested on: NCI-H226
[47] = tested on: KM12
[48] = tested on: NCI-H460
[49] = tested on: A549
[50] = tested on: PC-3
[51] = tested on: MCF7
[52] = tested on: MDA-N
[53] = tested on: HCC 2998
[54] = tested on: CCRF-CEM
[55] = tested on: SR
[56] = tested on: SK-MEL-2
[57] = tested on: HL-60
[58] = tested on: Hs-578T
[59] = tested on: UACC-62

`N#Cc1c2ccc([N+](=O)[O-])cc2c(=O)n2c1sc1ccc(C(F)(F)F)cc12` was tested, and the GI50 [1] was > 100 µM (inactive), the GI50 [2] was > 100 µM (inactive) and the GI50 [3] was > 100 µM (inactive). For the same molecule, the GI50 [4] was > 100 µM (inactive), the GI50 [5] was > 100 µM (inactive) and the GI50 [6] was over 100 µM. The GI50 [7] was > 100 µM (inactive), the GI50 [8] was > 100 µM (inactive) and the GI50 [9] was > 100 µM (inactive). The GI50 [10] was > 100 µM (inactive), the GI50 [11] was > 100 µM (inactive) and the GI50 [12] was > 100 µM (inactive). The GI50 [13] was > 100 µM (inactive), the GI50 [14] was > 100 µM (inactive) and the GI50 [15] was > 100 µM (inactive). The GI50 [16] was > 100 µM (inactive), the GI50 [17] was > 100 µM (inactive) and the GI50 [18] was > 100 µM (inactive). For the same molecule, the GI50 [19] was > 100 µM (inactive), the GI50 [20] was > 100 µM (inactive) and the GI50 [21] was > 100 µM (inactive). The GI50 [22] was > 100 µM (inactive), the GI50 [23] was > 100 µM (inactive) and the GI50 [24] was > 100 µM (inactive). The GI50 [25] was > 100 µM (inactive), the GI50 [26] was > 100 µM (inactive) and the GI50 [27] was > 100 µM (inactive). For the same molecule, the GI50 [28] was > 100 µM (inactive), the GI50 [29] was > 100 µM (inactive) and the GI50 [30] was > 100 µM (inactive). For the same molecule, the GI50 [31] was > 100 µM (inactive), the GI50 [32] was > 100 µM (inactive) and the GI50 [33] was > 100 µM (inactive). The GI50 [34] was > 100 µM (inactive), the GI50 [35] was > 100 µM (inactive) and the GI50 [36] was > 100 µM (inactive). For the same molecule, the GI50 [37] was > 100 µM (inactive), the GI50 [38] was > 100 µM (inactive) and the GI50 [39] was > 100 µM (inactive). For the same molecule, the GI50 [40] was > 100 µM (inactive), the GI50 [41] was > 100 µM (inactive) and the GI50 [42] was > 100 µM (inactive). For the same molecule, the GI50 [43] was > 100 µM (inactive), the GI50 [44] was > 100 µM (inactive) and the GI50 [45] was > 100 µM (inactive). The GI50 [46] was > 100 µM (inactive), the GI50 [47] was > 100 µM (inactive) and the GI50 [48] was > 100 µM (inactive). The GI50 [49] was > 100 µM (inactive).

`O=C=NCCCCCCN1C(=O)N2C(c3ccccc3)N(CCCCCCN=C=O)C(=O)N2C1c1ccccc1` (stereo not given) was tested, and the GI50 [1] was > 100 µM (inactive), the GI50 [2] was 55 µM (inactive) and the GI50 [3] was > 100 µM (inactive). The GI50 [4] was > 100 µM (inactive), the GI50 [5] was > 100 µM (inactive) and the GI50 [6] was over 100 µM. For the same molecule, the GI50 [7] was > 100 µM (inactive), the GI50 [8] was > 100 µM (inactive) and the GI50 [9] was > 100 µM (inactive). For the same molecule, the GI50 [10] was > 100 µM (inactive), the GI50 [11] was > 100 µM (inactive) and the GI50 [12] was > 100 µM (inactive). The GI50 [13] was > 100 µM (inactive), the GI50 [14] was > 100 µM (inactive) and the GI50 [15] was > 100 µM (inactive). The GI50 [16] was > 100 µM (inactive), the GI50 [17] was > 100 µM (inactive) and the GI50 [50] was > 100 µM (inactive). For the same molecule, the GI50 [19] was > 100 µM (inactive), the GI50 [20] was > 100 µM (inactive) and the GI50 [21] was > 100 µM (inactive). The GI50 [22] was > 100 µM (inactive), the GI50 [51] was > 100 µM (inactive) and the GI50 [23] was > 100 µM (inactive). The GI50 [24] was > 100 µM (inactive), the GI50 [25] was > 100 µM (inactive) and the GI50 [26] was > 100 µM (inactive). For the same molecule, the GI50 [27] was > 100 µM (inactive), the GI50 [28] was > 100 µM (inactive) and the GI50 [29] was > 100 µM (inactive). For the same molecule, the GI50 [30] was > 100 µM (inactive), the GI50 [31] was > 100 µM (inactive) and the GI50 [32] was 62.1 µM (inactive). For the same molecule, the GI50 [33] was > 100 µM (inactive), the GI50 [34] was > 100 µM (inactive) and the GI50 [36] was > 100 µM (inactive). The GI50 [37] was > 100 µM (inactive), the GI50 [38] was > 100 µM (inactive) and the GI50 [40] was > 100 µM (inactive). The GI50 [52] was > 100 µM (inactive), the GI50 [41] was > 100 µM (inactive) and the GI50 [42] was > 100 µM (inactive). For the same molecule, the GI50 [43] was > 100 µM (inactive), the GI50 [53] was > 100 µM (inactive) and the GI50 [54] was 79.3 µM (inactive). For the same molecule, the GI50 [44] was > 100 µM (inactive), the GI50 [45] was > 100 µM (inactive) and the GI50 [46] was > 100 µM (inactive). For the same molecule, the GI50 [55] was 65.2 µM (inactive), the GI50 [56] was > 100 µM (inactive) and the GI50 [47] was > 100 µM (inactive). For the same molecule, the GI50 [48] was > 100 µM (inactive), the GI50 [49] was > 100 µM (inactive) and the GI50 [57] was > 100 µM (inactive).

With `C=CC(C)(C)C1(CC(OC)OC)C(=O)N(C)c2ccccc21` (stereo not given) the GI50 [58] was > 25 µM (inactive), the GI50 [1] was > 25 µM (inactive) and the GI50 [2] was > 25 µM (inactive). For the same molecule, the GI50 [3] was > 25 µM (inactive), the GI50 [4] was > 25 µM (inactive) and the GI50 [6] was over 25 µM. For the same molecule, the GI50 [7] was > 25 µM (inactive), the GI50 [8] was > 25 µM (inactive) and the GI50 [10] was > 25 µM (inactive). The GI50 [11] was > 25 µM (inactive), the GI50 [12] was > 25 µM (inactive) and the GI50 [13] was > 25 µM (inactive). For the same molecule, the GI50 [14] was > 25 µM (inactive), the GI50 [15] was > 25 µM (inactive) and the GI50 [16] was > 25 µM (inactive). For the same molecule, the GI50 [17] was > 25 µM (inactive), the GI50 [18] was > 25 µM (inactive) and the GI50 [50] was > 25 µM (inactive). For the same molecule, the GI50 [19] was > 25 µM (inactive), the GI50 [20] was > 25 µM (inactive) and the GI50 [21] was > 25 µM (inactive). The GI50 [22] was > 25 µM (inactive), the GI50 [51] was > 25 µM (inactive) and the GI50 [24] was > 25 µM (inactive). For the same molecule, the GI50 [25] was > 25 µM (inactive), the GI50 [26] was > 25 µM (inactive) and the GI50 [27] was > 25 µM (inactive). For the same molecule, the GI50 [28] was > 25 µM (inactive), the GI50 [29] was > 25 µM (inactive) and the GI50 [30] was > 25 µM (inactive). For the same molecule, the GI50 [31] was > 25 µM (inactive), the GI50 [33] was > 25 µM (inactive) and the GI50 [34] was > 25 µM (inactive). For the same molecule, the GI50 [37] was > 25 µM (inactive), the GI50 [38] was > 25 µM (inactive) and the GI50 [39] was > 25 µM (inactive). The GI50 [52] was > 25 µM (inactive), the GI50 [41] was > 25 µM (inactive) and the GI50 [42] was > 25 µM (inactive). The GI50 [43] was > 25 µM (inactive), the GI50 [53] was > 25 µM (inactive) and the GI50 [54] was > 25 µM (inactive). The GI50 [44] was > 25 µM (inactive), the GI50 [45] was > 25 µM (inactive) and the GI50 [46] was > 25 µM (inactive). The GI50 [55] was > 25 µM (inactive), the GI50 [56] was > 25 µM (inactive) and the GI50 [47] was > 25 µM (inactive). The GI50 [48] was > 25 µM (inactive), the GI50 [49] was > 25 µM (inactive) and the GI50 [57] was > 25 µM (inactive). The GI50 [59] was > 25 µM (inactive).
